Experimental data from patent US12383544B2, “Methods for the treatment of polycystic kidney disease” (Galapagos NV, priority 2019, dated 2025).
Read-outs that look alike come from different tables or passages of the source.

How the values were obtained:
wild type human CFTR = target: T1, wild type human CFTR (Homo sapiens, UniProt P13569); assay: Yellow Fluorescent Protein (YFP) halide assay in wild type CFTR (HEK293 cells); format: cell-based; conditions: HEK293 cells transfected with wild type human CFTR; 24 h incubation; 10 μM forskolin; read-out: EC50 of inhibition of WT CFTR
T1 construct: expressed in transfected cells; host or cells: HEK293
T1 sequence (P13569 whole entry): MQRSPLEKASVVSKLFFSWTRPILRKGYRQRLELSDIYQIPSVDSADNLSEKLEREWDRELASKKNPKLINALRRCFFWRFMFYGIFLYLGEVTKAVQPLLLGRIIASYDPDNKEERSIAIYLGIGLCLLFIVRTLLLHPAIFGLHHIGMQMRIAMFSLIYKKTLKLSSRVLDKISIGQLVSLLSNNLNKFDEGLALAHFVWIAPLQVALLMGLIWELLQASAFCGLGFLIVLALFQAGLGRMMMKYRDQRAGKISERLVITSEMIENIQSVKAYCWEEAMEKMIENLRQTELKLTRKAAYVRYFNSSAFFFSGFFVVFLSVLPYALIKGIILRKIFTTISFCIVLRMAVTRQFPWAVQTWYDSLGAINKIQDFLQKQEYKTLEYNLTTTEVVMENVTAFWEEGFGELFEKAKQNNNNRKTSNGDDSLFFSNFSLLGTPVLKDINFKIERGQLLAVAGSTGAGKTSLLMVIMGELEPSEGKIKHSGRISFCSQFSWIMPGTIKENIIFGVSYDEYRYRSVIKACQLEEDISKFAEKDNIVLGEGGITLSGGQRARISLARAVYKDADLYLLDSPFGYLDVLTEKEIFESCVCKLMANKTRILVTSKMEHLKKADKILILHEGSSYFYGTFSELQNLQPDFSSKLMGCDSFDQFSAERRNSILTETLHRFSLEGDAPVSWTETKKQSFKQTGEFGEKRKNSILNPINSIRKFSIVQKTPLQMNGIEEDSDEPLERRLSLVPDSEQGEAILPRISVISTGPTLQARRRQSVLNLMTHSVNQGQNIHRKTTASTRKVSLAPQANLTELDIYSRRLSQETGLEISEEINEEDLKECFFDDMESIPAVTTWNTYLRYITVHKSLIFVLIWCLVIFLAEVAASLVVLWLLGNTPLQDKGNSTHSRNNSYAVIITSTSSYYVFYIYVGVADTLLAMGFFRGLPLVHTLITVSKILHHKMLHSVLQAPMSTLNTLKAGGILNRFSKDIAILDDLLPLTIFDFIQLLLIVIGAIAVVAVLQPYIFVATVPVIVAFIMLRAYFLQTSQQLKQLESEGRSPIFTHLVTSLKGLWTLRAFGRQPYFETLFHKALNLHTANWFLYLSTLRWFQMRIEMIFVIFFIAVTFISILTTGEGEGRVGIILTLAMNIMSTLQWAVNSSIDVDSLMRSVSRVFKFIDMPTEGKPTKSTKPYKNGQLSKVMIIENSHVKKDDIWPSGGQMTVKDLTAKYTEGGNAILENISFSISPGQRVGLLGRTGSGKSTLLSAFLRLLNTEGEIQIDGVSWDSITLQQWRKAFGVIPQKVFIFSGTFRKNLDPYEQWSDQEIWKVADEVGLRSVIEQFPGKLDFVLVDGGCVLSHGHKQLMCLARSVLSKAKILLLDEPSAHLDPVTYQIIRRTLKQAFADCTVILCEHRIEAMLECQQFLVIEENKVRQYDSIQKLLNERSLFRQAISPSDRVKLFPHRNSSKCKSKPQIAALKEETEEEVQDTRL
Procedure: To evaluate the ability of a test compound to inhibit wild type CFTR, a YFP halide assay using HEK293 cells transfected with wild type human CFTR was developed. (Galietta, Jayaraman, and Verkman 2001) Cells were incubated during 24 h with a dose range of test compound and the resulting wild type CFTR activity was plotted to obtain the EC50.
Test compounds were also added together with forskolin to wild type CFTR expressing cells in order to fully active the available CFTR at the plasma membrane and determine accurately the inhibition of the channel activity.
HEK293 cells were transfected with 10 to 80 ng of wild type CFTR and 20 ng of plasmid encoding YFP (H148Q/I152L/F47L) using jetPEI (Polyplus transfection). Directly after transfection, cells were seeded in black 96-well plates coated with Poly-D-lysine at a density of 70,000 cells per well. The next day, cells were treated with corrector(s) for 24 h. After this incubation period, cells were washed twice with DPBS with Ca^2+ and Mg^2+. Subsequently, cells were treated with 10 μM forskolin and the desired concentration of potentiator in a volume of 40 μl and incubated at room temperature for 10 min, a time point optimized in previous experiments resulting in a good window (positive control/negative control >2) and signal to background ratio. YFP fluorescence was measured using an EnVision plate reader (PerkinElmer). […]

wild type mouse CFTR = target: T2, wild type mouse CFTR (Mus musculus, UniProt P26361); assay: YFP halide (YHA) assay in mIMCD3_wt cells, Cpd 1 with Metformin; format: cell-based
T2 construct: expressed in transfected cells; host or cells: mouse mIMCD3_wt cells (ATCC CRL-2123)
T2 sequence (P26361 whole entry): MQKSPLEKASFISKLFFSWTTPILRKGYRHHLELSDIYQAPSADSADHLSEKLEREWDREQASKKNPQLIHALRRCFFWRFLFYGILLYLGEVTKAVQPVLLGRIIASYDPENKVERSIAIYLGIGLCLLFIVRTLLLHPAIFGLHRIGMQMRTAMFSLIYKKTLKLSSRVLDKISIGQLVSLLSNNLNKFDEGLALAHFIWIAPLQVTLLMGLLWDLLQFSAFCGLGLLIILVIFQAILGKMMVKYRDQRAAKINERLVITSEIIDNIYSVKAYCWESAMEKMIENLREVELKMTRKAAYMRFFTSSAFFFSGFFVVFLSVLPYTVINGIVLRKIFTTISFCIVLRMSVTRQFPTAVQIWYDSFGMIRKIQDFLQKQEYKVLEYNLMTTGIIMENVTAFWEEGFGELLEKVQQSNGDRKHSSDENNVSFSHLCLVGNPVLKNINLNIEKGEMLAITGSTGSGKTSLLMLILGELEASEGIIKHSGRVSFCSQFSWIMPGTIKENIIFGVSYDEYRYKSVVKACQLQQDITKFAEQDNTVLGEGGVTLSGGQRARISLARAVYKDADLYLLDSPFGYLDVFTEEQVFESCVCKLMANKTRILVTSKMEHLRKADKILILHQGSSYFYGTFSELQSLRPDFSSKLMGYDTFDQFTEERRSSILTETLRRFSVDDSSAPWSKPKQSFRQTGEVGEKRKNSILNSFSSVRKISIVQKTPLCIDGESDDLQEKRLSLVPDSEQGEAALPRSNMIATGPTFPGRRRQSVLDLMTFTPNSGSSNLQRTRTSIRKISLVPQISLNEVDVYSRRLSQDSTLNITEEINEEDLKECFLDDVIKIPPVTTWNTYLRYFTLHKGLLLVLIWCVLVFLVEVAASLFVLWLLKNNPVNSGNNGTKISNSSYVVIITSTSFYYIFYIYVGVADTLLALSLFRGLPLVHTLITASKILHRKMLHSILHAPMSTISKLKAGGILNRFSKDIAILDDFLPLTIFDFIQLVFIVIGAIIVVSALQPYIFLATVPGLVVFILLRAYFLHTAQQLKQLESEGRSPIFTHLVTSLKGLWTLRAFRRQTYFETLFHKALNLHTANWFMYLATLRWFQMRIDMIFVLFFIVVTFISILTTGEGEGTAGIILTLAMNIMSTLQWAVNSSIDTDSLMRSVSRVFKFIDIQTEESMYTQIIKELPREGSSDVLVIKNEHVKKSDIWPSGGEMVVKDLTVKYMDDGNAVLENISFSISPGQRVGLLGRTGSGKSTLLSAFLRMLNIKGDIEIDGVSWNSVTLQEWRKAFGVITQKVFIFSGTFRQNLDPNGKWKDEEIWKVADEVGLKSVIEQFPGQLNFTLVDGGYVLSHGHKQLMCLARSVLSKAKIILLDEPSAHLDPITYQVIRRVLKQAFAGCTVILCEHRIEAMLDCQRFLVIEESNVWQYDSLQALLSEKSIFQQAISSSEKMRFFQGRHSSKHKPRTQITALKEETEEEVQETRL
Procedure: To evaluate the ability of a test compound combination to inhibit wild type CFTR using tubular kidney cells, a YFP halide assay using mIMCD3_wt cells (ATCC® CRL-2123) transfected with wild type mouse CFTR was developed (Galietta, Jayaraman, and Verkman 2001). Cells were incubated during 24 h with a dose range of compound 1 or a combination of a dose range of compound 1 with increasing dose of Metformin Immediately before measurement, forskolin together with a dose range of compound 1 combined or not with increasing dose of Metformin was added the wild type CFTR expressing mIMCD3 cells in order to fully activate the available CFTR at the plasma membrane. Inhibition of the channel by test compounds was plotted to obtain IC50s.
Mouse mIMCD3_wt cells were transfected with 20 ng of wild type CFTR and 80 ng of plasmid encoding YFP (H148Q/I152L/F47L) using jetPEI (Polyplus transfection). Directly after transfection, cells were seeded in black 96-well plates coated with Poly-D-lysine at a density of 40,000 cells per well. The next day, cells were treated with compounds for 24 h. After this incubation period, cells were washed twice with DPBS with Ca^2+ and Mg^2+. Subsequently, cells were treated with 10 μM forskolin and the desired concentrations of compounds in a volume of 40 μl and incubated at room temperature for 15 min, a time point optimized in previous experiments resulting in a good window (positive control/negative control>2) and signal to background ratio. YFP fluorescence was measured using an EnVision plate reader (PerkinElmer). […] The excitation wavelength was 485 nm and the emission wavelength 530 nm.
Concentration-response experiments were fitted using a 4 parameter hill function of the form Response=Bottom+(Top−Bottom)/(1+(EC50/concentration)^HillSlope)) to determine EC50 values.

Question: `COC1CCN(C2CCN(c3cc(C(=O)NS(=O)(=O)N(C)C)nc4c3c(C3CCC3)nn4-c3ccc(F)cc3)CC2)CC1` [Cpd 1] was tested. Which EC50 (wild type human CFTR) did it give?
Answer: 0.728 µM

Question: What about the EC50 (wild type mouse CFTR; Compound 1 alone at 30 μM, mouse mIMCD3_wt cells, read-out: EC50 of inhibition of mouse CFTR activity) of the same compound?
Answer: 3.12 µM

Question: What about the IC50 (wild type mouse CFTR; [Metformin] 0 μM, mIMCD3_wt cells, read-out: IC50) of the same compound?
Answer: 3.12 µM

Question: What about the IC50 (wild type mouse CFTR; [Metformin] 20 μM, mIMCD3_wt cells, read-out: IC50) of the same compound?
Answer: 3.67 µM

Question: What about the IC50 (wild type mouse CFTR; [Metformin] 40 μM, mIMCD3_wt cells, read-out: IC50) of the same compound?
Answer: 2.32 µM

Question: And the IC50 (wild type mouse CFTR; [Metformin] 80 μM, mIMCD3_wt cells, read-out: IC50)?
Answer: 3.79 µM

Question: And the IC50 (wild type mouse CFTR; [Metformin] 160 μM, mIMCD3_wt cells, read-out: IC50)?
Answer: 2.91 µM

Question: What about the IC50 (wild type mouse CFTR; [Metformin] 310 μM, mIMCD3_wt cells, read-out: IC50) of the same compound?
Answer: 1.91 µM

Question: What about the IC50 (wild type mouse CFTR; [Metformin] 630 μM, mIMCD3_wt cells, read-out: IC50) of the same compound?
Answer: 1.77 µM

Question: What about the IC50 (wild type mouse CFTR; [Metformin] 1250 μM, mIMCD3_wt cells, read-out: IC50) of the same compound?
Answer: 1.82 µM

Question: And the IC50 (wild type mouse CFTR; [Metformin] 2500 μM, mIMCD3_wt cells, read-out: IC50)?
Answer: 0.83 µM

Question: And the IC50 (wild type mouse CFTR; combined with 5 μM of Metformin, mouse mIMCD3 cells, read-out: IC50 of inhibition of mouse CFTR)?
Answer: 0.92 µM
